The results in this text go back to article PMC9060900 (RSC Advances, 2019).

This assay has as its target T1, TMV coat protein (TMV-CP; TMV CP) (Tobacco mosaic virus (vulgare), UniProt P69687).
T1 sequence (P69687 2-159): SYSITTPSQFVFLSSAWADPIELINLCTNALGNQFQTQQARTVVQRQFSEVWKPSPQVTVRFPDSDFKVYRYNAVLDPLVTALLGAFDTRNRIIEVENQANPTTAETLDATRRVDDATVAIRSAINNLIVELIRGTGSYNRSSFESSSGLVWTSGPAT
The experiment in a line: microscale thermophoresis. The format is binding.

Structures are written as SMILES.

Compound `Cc1csc(/C=C/C(=O)c2ccccc2OCCSc2nnc(-c3ccccc3)c(-c3ccccc3)n2)n1` [4o] had a Kd of 245 ± 63.9 µM.
